Results from ChEMBL document CHEMBL1268831, “Indole alkaloids from Ervatamia hainanensis with potent acetylcholinesterase inhibition activities” (Bioorg Med Chem Lett, 2010).

molecular target: Acetylcholinesterase (Electrophorus electricus, UniProt O42275); experiment: Inhibition of electric eel AChE by Ellman's method
Sequence (O42275 whole entry): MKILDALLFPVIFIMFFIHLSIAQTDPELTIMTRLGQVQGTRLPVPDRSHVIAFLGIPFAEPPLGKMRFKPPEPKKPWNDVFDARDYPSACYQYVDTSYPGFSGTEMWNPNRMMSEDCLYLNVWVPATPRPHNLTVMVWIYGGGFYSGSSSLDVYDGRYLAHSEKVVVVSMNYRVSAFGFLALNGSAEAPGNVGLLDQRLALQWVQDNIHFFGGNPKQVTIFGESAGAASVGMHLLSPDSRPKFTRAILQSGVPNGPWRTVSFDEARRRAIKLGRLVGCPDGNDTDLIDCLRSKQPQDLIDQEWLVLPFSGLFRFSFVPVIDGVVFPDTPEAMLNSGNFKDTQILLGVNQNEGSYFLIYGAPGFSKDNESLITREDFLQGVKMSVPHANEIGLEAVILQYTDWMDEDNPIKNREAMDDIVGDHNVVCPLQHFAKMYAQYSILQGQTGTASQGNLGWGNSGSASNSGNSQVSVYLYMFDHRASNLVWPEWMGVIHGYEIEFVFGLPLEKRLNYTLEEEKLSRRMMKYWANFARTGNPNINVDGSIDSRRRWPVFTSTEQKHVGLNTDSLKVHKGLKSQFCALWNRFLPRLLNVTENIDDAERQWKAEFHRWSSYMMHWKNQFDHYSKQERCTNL

Question: With `CC[C@H]1C[C@@H]2CN3CCc4c([nH]c5ccc(O)cc45)[C@](C(=O)OC)(C2)[C@H]13` as the compound, how does the IC50 read?
Answer: 29 µM

Question: With `CC[C@H]1C[C@@H]2CN3CCc4c([nH]c5ccc(OC)cc45)[C@](C(=O)OC)(C2)[C@H]13` [VOACANGINE] as the compound, how does the IC50 read?
Answer: 4.4 µM

Question: Which IC50 does the source give for `COC(=O)[C@@]12C[C@@H]3C[C@H]([C@H](C)O)[C@@H]1N(CCc1c2[nH]c2ccc(OC)cc12)C3` [VOACRISTINE] here?
Answer: 420 µM

Question: Which IC50 does the source give for `CC[C@H]1C[C@@H]2CN3CC[C@]4(O)C(=Nc5ccccc54)[C@](C(=O)OC)(C2)[C@H]13` [CORONARIDINE HYDROXYINDOLENINE] here?
Answer: > 1000 µM

Question: For `COC(=O)[C@@]12C[C@@H]3C[C@H]([C@@H](C)O)[C@@H]1N(CCc1c2[nH]c2ccc(OC)cc12)C3` [19(R)-HEYNEANINE], which IC50 is on record?
Answer: 730 µM

Question: With `CC[C@H]1C[C@@H]2CN3CCc4c([nH]c5ccccc45)[C@](C(=O)OC)(C2)[C@H]13` [CORONARIDINE] as the compound, how does the IC50 read?
Answer: 8.6 µM

Question: Which IC50 does the source give for `COC(=O)[C@@]12C[C@@H]3C[C@H]([C@H](C)O)[C@@H]1N(CC[C@]1(O)C2=Nc2ccccc21)C3` [HEYNEANINE HYDROXYINDOLENINE] here?
Answer: > 1000 µM

Question: Which IC50 does the source give for `C/C=C1/CN(C)[C@H]2Cc3c([nH]c4ccccc34)C(=O)C[C@H]1[C@@H]2C(=O)OC` [VOBASINE] here?
Answer: > 1000 µM
